Values quoted from earlier work as cited in US20090047259A1, “Methods of Using the Calcineurin A Variant CnA-beta 1” (priority 2005, published 2009).

Tested on: calcineurin
Conditions: mdx mice

For `CC(=O)OCC(=O)[C@@]12N=C(C)O[C@@H]1C[C@H]1[C@@H]3CCC4=CC(=O)C=C[C@]4(C)[C@H]3[C@@H](O)C[C@@]12C` [deflazacort], the “NFAT-dependent genes, including utrophin” value is listed as “induced”, the calcineurin activity is listed as “activated calcineurin” and the myocyte viability is listed as “restored myocyte viability”.
